This is an account of results in patent publication US20250228239A1, “MOLECULES HAVING PESTICIDAL UTILITY, AND INTERMEDIATES, COMPOSITIONS, AND PROCESSES, RELATED THERETO” (priority 2024, published 2025).

What all share (type): in vivo
The test system of series [1] is Beet Armyworm (Spodoptera exigua, LAPHEG). The series can be described thus: Bioassays on Beet Armyworm (BAW), 128-well diet tray assay. As to conditions: Spodoptera exigua; for mortality at 50 µg/cm2: 168 h, second instar larvae, 50 μg/cm^2 of test molecule on artificial diet, 25° C., five to seven days, average of eight wells, read-out: BAW % Control (or Mortality) rating. The method, boiled down: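 Eight diet wells per compound were treated at 50 μg/cm^2 (acetone-water 90:10), dried, then infested with 1–5 second-instar larvae each. After five to seven days at 25 °C under 14:10 photoperiod, mortality was scored and averaged across wells.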

The subject of series [2] is Cabbage Looper (Trichoplusia ni, TRIPNI). As to the kind of experiment: Bioassays on Cabbage Looper (CL), 128-well diet tray assay. The note with it: Trichoplusia ni; for mortality at 50 µg/cm2: 168 h, second instar larvae, 50 μg/cm^2 of test molecule on artificial diet, 25° C., five to seven days, average of eight wells, read-out: CL % Control (or Mortality) rating. The method, boiled down:
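One to five second-instar larvae per well on artificial diet surface-treated with 50 μg/cm^2 test molecule (applied in 90:10 acetone-water, dried). Held 5–7 days at 25° C, 14:10 light-dark; percent mortality recorded per well and averaged over eight wells.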

Series [3] concerns Yellow Fever Mosquito (Aedes aegypti, AEDSAE). As to conditions: for YFM rating: Table ABC / ABC-DP rating; for YFM % Control (or Mortality) rating: about 1 day-old larvae, 4000 ppm master solution diluted with 90:10 water/acetone, 15 μL per well plus 220 μL larval mixture, 3 days. The method, boiled down:
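Rating-scale grades reflect larval mortality scored per well after 3 days at room temperature under non-evaporative lids. Larvae (~1 day old, hatched overnight in liver-powder water) were added to six daughter plates per compound, prepared from a 4000 ppm DMSO stock diluted in 90:10 water/acetone.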

Where [4] appears, read: Beet Armyworm, Table ABC / ABC-DP rating, read-out: BAW rating.
Where [5] appears, read: Cabbage Looper, Table ABC / ABC-DP rating, read-out: CL rating.
Setting [6] is: Beet Armyworm, rating class, read-out: BAW.
Where [7] appears, read: Cabbage Looper, rating class, read-out: CL.
Where [8] appears, read: Yellow Fever Mosquito, rating class.
[9] abbreviates: Table ABC: Biological Results, species BAW, read-out: BAW.
Setting [10] is: Table ABC: Biological Results, species CL, read-out: CL.
Where [11] appears, read: Table ABC: Biological Results, species YFM.

Where two headings read alike, the source gives them in different places.

As usually defined, the mortality is the percentage killed.

On to `O=C(CCNC(=O)c1cc(NC(=O)[C@H]2[C@H](c3cc(Cl)cc(Cl)c3)C2(Cl)Cl)ccc1Cl)NCCC(F)(F)F` (relative stereo) [F2092, trans-2-Chloro-5-(2,2-dichloro-3-(3,5-dichlorophenyl)cyclopropane-1-carboxamido)-N-(3-oxo-3-(3,3,3-trifluoropropylamino)propyl)benzamide], for which the pest or weed control at 50 µg/cm2 in series [1] (setting [4]) and in series [2] (setting [5]) was 50 to 100% throughout. In series [3] (Yellow Fever Mosquito), the YFM rating entry is given as “B (More than 0 – Less than 80)”.
In the case of `Nc1c(F)ccc(NC(=O)c2cc(NC(=O)[C@H]3[C@H](c4cccc(F)c4)C3(Cl)Cl)ccc2Cl)c1F` (relative stereo) [F1596, trans-N-(3-Amino-2,4-difluorophenyl)-2-chloro-5-(2,2-dichloro-3-(3-fluorophenyl)cyclopropane-1-carboxamido)benzamide], the pest or weed control at 50 µg/cm2 in series [1] (setting [6]) and in series [2] (setting [7]) was 50 to 100% in each case. For the same compound, in series [3] (setting [8]), the YFM result was “A (80–100)”.
`O=C(CCF)Nc1c(F)ccc(NC(=O)c2cc(NC(=O)[C@H]3[C@H](c4ccc(F)c(C(F)(F)F)c4)C3(Cl)Cl)ccc2Cl)c1F` [F1735, 2-Chloro-5-((1R,3R)-2,2-dichloro-3-(4-fluoro-3-(trifluoromethyl)phenyl)cyclopropane-1-carboxamido)-N-(2,4-difluoro-3-(3-fluoropropanamido)phenyl)benzamide]: the pest or weed control at 50 µg/cm2 in series [1] (setting [6]) and in series [2] (setting [7]) was 50 to 100% throughout. The YFM result in series [3] (setting [8]) is “A (80–100)”.
In the case of `O=C(Nc1ccc(F)c(Br)c1)c1cc(NC(=O)[C@H]2[C@H](c3cc(Cl)cc(Cl)c3)C2(Cl)Cl)ccc1Cl` (relative stereo) [F1304, trans-N-(3-bromo-4-fluorophenyl)-2-chloro-5-(2,2-dichloro-3-(3,5-dichlorophenyl)cyclopropane-1-carboxamido)benzamide], the pest or weed control at 50 µg/cm2 in series [1] (setting [9]) and in series [2] (setting [10]) was 50 to 100% in each case. Further, the YFM result in series [3] (setting [11]) is “A (80–100)”.
As for `O=C(CCC(F)(F)F)Nc1c(F)ccc(NC(=O)c2cc(NC(=O)[C@H]3[C@H](c4ccc(Cl)c(Cl)c4)C3(Cl)Cl)ccc2Cl)c1F` [F1847, 2-Chloro-5-((1R,3R)-2,2-dichloro-3-(3,4-dichlorophenyl)cyclopropane-1-carboxamido)-N-(2,4-difluoro-3-(4,4,4-trifluorobutanamido)phenyl)benzamide], the pest or weed control at 50 µg/cm2 in series [1] (setting [4]) and in series [2] (setting [5]) was 50 to 100% throughout. Besides, in series [3] (Yellow Fever Mosquito), the YFM rating result is given as “A (80–100)”.
Take `O=C(Nc1ccc(F)cc1F)c1cc(NC(=O)C2C(c3cc(Br)cc(S(F)(F)(F)(F)F)c3)C2(Cl)Cl)ccc1Cl` (stereo not drawn) [F1032, cis-5-(3-(3-Bromo-5-(pentafluoro-λ^6-sulfanyl)phenyl)-2,2-dichiorocyclopropane-1-carboxamido)-2-chloro-N-(2,4-difluorophenyl)benzamide]: the pest or weed control at 50 µg/cm2 in series [1] (setting [9]) and in series [2] (setting [10]) was 50 to 100% each time. The YFM result in series [3] (setting [11]) is on record as “A (80–100)”.
As for `O=C(Nc1ccc(F)cc1F)c1cc(NC(=O)[C@H]2[C@H](c3cc(Cl)c(Br)c(Cl)c3)C2(Cl)Cl)ccc1Cl` (relative stereo) [F1006, trans-5-(3-(4-Bromo-3,5-dichlorophenyl)-2,2-dichlorocyclopropane-1-carboxamido)-2-chloro-N-(2,4-difluorophenyl)benzamide], the pest or weed control at 50 µg/cm2 in series [1] (setting [9]) and in series [2] (setting [10]) was 50 to 100% throughout. In addition, the YFM entry in series [3] (setting [11]) is “A (80–100)”.
For the compound `O=C(Nc1ccc(F)cc1F)c1cc(NC(=O)[C@H]2[C@@H](c3cc(Cl)c(F)c(Cl)c3)C2(Cl)Cl)ccc1Cl` (relative stereo) [F1173, cis-2-Chloro-5-(2,2-dichloro-3-(3,5-dichloro-4-fluorophenyl)cyclopropane-1-carboxamido)-N-(2,4-difluorophenyl)benzamide], the pest or weed control at 50 µg/cm2 in series [1] (setting [9]) and in series [2] (setting [10]) was 50 to 100% in each case. Further, the YFM result in series [3] (setting [11]) is listed as “A (80–100)”.
Take `O=C(Nc1ccc(F)c(NC(=O)C(Cl)CCl)c1F)c1cc(NC(=O)[C@H]2[C@H](c3ccc(F)c(C(F)(F)F)c3)C2(Cl)Cl)ccc1Cl` (stereo partly drawn) [F1728, 2-Chloro-5-((1R,3R)-2,2-dichloro-3-(4-fluoro-3-(trifluoromethyl)phenyl)cyclopropane-1-carboxamido)-N-(3-(2,3-dichloropropanamido)-2,4-difluorophenyl)benzamide]: the pest or weed control at 50 µg/cm2 in series [1] (setting [6]) and in series [2] (setting [7]) was 50 to 100% in each case. Moreover, the YFM result in series [3] (setting [8]) is “B (More than 0 – Less than 80)”.
With `CC(C)(C)OC(=O)N(C(=O)OC(C)(C)C)c1cc(NC(=O)c2cc(NC(=O)[C@H]3[C@H](c4ccc(Cl)c(Cl)c4)C3(Cl)Cl)ccc2Cl)c(F)cc1F` [DP12, tert-Butyl-N-((tert-butoxy)carbonyl)-N-(5-(2-chloro-5-((1R,3R)-2,2-dichloro-3-(3,4-dichlorophenyl)cyclopropane-1-carboxamido)benzamido)-2,4-difluorophenyl)carbamate], the mortality at 50 µg/cm2 in series [1] and in series [2] was 50 to 100% each time. Besides, the pest or weed control at 50 µg/cm2 in series [1] (setting [4]) and in series [2] (setting [5]) was 50 to 100% throughout. Also, the “YFM % Control (or Mortality) rating” value in series [3] is recorded as “D (No activity noticed in this bioassay)”.
`CN(C(=O)c1cc(NC(=O)[C@H]2[C@H](c3ccc(F)c(C(F)(F)F)c3)C2(Cl)Cl)ccc1Cl)c1ccc(F)c(N)c1F` (relative stereo) [F1112, trans-N-(3-amino-2,4-difluorophenyl)-2-chloro-5-(2,2-dichloro-3-(4-fluoro-3-(trifluoromethyl)phenyl)cyclopropane-1-carboxamido)-N-methylbenzamide]: the pest or weed control at 50 µg/cm2 in series [1] (setting [9]) and in series [2] (setting [10]) was 50 to 100% each time. Further, in series [3] (setting [11]), the YFM entry is “A (80–100)”.
With `O=C(Nc1ccc(F)c(NC(=O)C(F)(F)F)c1F)c1cc(NC(=O)[C@H]2[C@H](c3ccc(Cl)c(Cl)c3)C2(Cl)Cl)ccc1Cl` [F1064, 2-Chloro-5-((1R,3R)-2,2-dichloro-3-(3,4-dichlorophenyl)cyclopropane-1-carboxamido)-N-(2,4-difluoro-3-(2,2,2-trifluoroacetamido)phenyl)benzamide], the pest or weed control at 50 µg/cm2 in series [1] (setting [9]) and in series [2] (setting [10]) was 50 to 100% throughout. Moreover, the YFM entry in series [3] (setting [11]) is recorded as “A (80–100)”.
With `O=C(COC(F)(F)C(F)(F)F)Nc1c(F)ccc(NC(=O)c2cc(NC(=O)[C@H]3[C@H](c4ccc(F)c(C(F)(F)F)c4)C3(Cl)Cl)ccc2Cl)c1F` [F1808, 2-Chloro-5-((1R,3R)-2,2-dichloro-3-(4-fluoro-3-(trifluoromethyl)phenyl)cyclopropane-1-carboxamido)-N-(2,4-difluoro-3-(2-(perfluoroethoxy)acetamido)phenyl)benzamide], the pest or weed control at 50 µg/cm2 in series [1] (setting [4]) and in series [2] (setting [5]) was 50 to 100% each time. In series [3] (Yellow Fever Mosquito), the YFM rating result is listed as “B (More than 0 – Less than 80)”.
Turning to `CC(=O)Nc1cc(NC(=O)c2cc(NC(=O)[C@H]3[C@H](c4cc(Cl)c(Cl)c(Cl)c4)C3(Cl)Cl)ccc2F)c(F)cc1F` [F1553, N-(5-Acetamido-2,4-difluorophenyl)-5-((1R,3R)-2,2-dichloro-3-(3,4,5-trichlorophenyl)cyclopropane-1-carboxamido)-2-fluorobenzamide], the pest or weed control at 50 µg/cm2 in series [1] (setting [6]) and in series [2] (setting [7]) was 50 to 100% in each case. For the same compound, the YFM result in series [3] (setting [8]) is recorded as “A (80–100)”.
On to `O=C(NNc1cccc(C(F)(F)F)c1)c1cc(NC(=O)[C@H]2[C@H](c3cc(Cl)cc(Cl)c3)C2(Cl)Cl)ccc1Cl` (relative stereo) [F2572, trans-2,2-Dichloro-N-(4-chloro-3-(2-(3-(trifluoromethyl)phenyl)hydrazine-1-carbonyl)phenyl)-3-(3,5-dichlorophenyl)cyclopropane-1-carboxamide], for which the mortality at 50 µg/cm2 in series [1] and in series [2] was 50 to 100% throughout. Further, the pest or weed control at 50 µg/cm2 in series [1] (setting [4]) and in series [2] (setting [5]) was 50 to 100% each time. Moreover, the YFM rating result in series [3] (Yellow Fever Mosquito) was “A (80–100)”. For the same compound, in series [3], the “YFM % Control (or Mortality) rating” value was “A (80–100)”.
Take `CNC(=O)CCNC(=O)c1cc(NC(=O)[C@H]2[C@H](c3cc(Cl)cc(Cl)c3)C2(Cl)Cl)ccc1Cl` (relative stereo) [F2070, trans-2-Chloro-5-(2,2-dichloro-3-(3,5-dichlorophenyl)cyclopropane-1-carboxamido)-N-(3-(methylamino)-3-oxopropyl)benzamide]: the pest or weed control at 50 µg/cm2 in series [1] (setting [4]) and in series [2] (setting [5]) was 50 to 100% throughout. In addition, the YFM rating result in series [3] (Yellow Fever Mosquito) is recorded as “A (80–100)”.
